Measurements from publication PMC3672070, “Novel birch pollen specific immunotherapy formulation based on contiguous overlapping peptides” (Clinical and Translational Allergy, 2013).
Read-outs that look alike come from different tables or passages of the source. Ends that are not written are not given here.

Experiments:
[1] = system: volunteers allergic to birch pollen; assay: Skin prick testing of birch pollen sensitive volunteers (AN002 phase I clinical trial); conditions: 20 volunteers; for skin prick test positive reactions: even at a 10 μM concentration
Description: (§1) The AN002 phase I clinical trial was a single center, open and controlled study conducted at the Centre Hospitalier Universitaire Vaudois (CHUV) in Lausanne. Volunteers (18–45 years) with at least one season history of birch pollen rhinoconjunctivitis or asthma were recruited outside of the birch pollen season. […] The primary objective of the study was to determine the reactogenicity of selected COPs by skin prick tests.
(§2) Individual T1 to T5 COPs, AllerT and T4-T5 mix were evaluated in vivo by skin prick tests following EAACI guidelines [31].

[2] = system: rBet v 1 specific IgE in sera from birch pollen allergic patients; assay: Competition ELISA for rBet v 1 specific human IgE; conditions: read-out: EC50, inhibition of serum IgE binding to rBet v 1; sera from 6 birch pollen allergic patients (1:5 to 1:10) incubated 1 h with tenfold dilutions of competitor starting at 10^-5 M; rBet v 1 coated plates; '>' = no competitive activity up to this concentration
Description: Successively and with washings between steps, plates were incubated 1 h at RT with biotinylated mouse anti-huIgE (Pharmingen, 5 μg/ml, 1 h at RT), Streptavidin-HRP or -alkaline phosphatase (BD, 1:1000 or 1:8000, respectively, 30 min at RT) and TMB (BD OptEIA, ) or 4-NPP. OD were read at 450 nm, 630 nm and 405 nm, respectively. Inhibition of IgE binding to Betv 1 was calculated as: (OD with competitor minus ODmin)/(OD without competitor minus ODmin) × 100, where ODmin was determined in wells without serum.

[3] = system: volunteers allergic to birch pollen; conditions: human, in vivo
Description: as §1, §2

RBL-2H3 cells = assay: Degranulation assay (beta-hexosaminidase release) on rat basophil line RBL-2H3 loaded with sera from rBet v 1-sensitized mice; assay type: cell-based
Description: Degranulation assay was performed as previously described. RBL-2H3 cells were plated in 96-well tissue culture plates (4×10^4 cells/well) overnight. Passive sensitization of RBL-2H3 cells was carried out with sera from rBet v 1-sensitized mice at a final dilution of 1:30 for 2 h. Unbound antibodies were removed by washing the cell layer twice in Hanks’ balanced salt solution (Sigma-Aldrich, St-Louis, MO, USA). […] The reaction was stopped by addition of 100 μl glycine buffer (0.2M glycine, 0.2M NaCl, pH 10.7) and optical densities (OD) measured at 405 nm.

[4] = system: RBL703/21 cells (RBL transfected with human FcϵRI); assay: Degranulation assay (beta-hexosaminidase release) on humanised basophil cell line RBL703/21; assay type: cell-based, rat; conditions: RBL703/21 incubated overnight with sera from ten patients (ImmunoCAP classes 4 to 6); 1 h 37°C
Description: The assay was adapted from Ladics et al. and Blanc et al.. RBL cells transfected with human FcϵRI (RBL703/21, kind gift of Dr L. Vogel, Paul-Ehrlich Institute, Germany) were plated at 10^5 cells/well in medium (MEM containing glutamine and penicillin/streptomycin) and incubated overnight with sera from subjects with class 4, 5 and 6 IgE levels to birch pollen extract as determined by ImmunoCAP (Phadia, Uppsala, Sweden). Human serum was diluted 1/2 with 4M glucose and incubated for 45 min at 56°C, centrifuged and diluted 1/5 with MEM medium before addition to RBL703/21 cells. […] Supernatants (30 μl) were incubated in duplicates with 50 μl of substrate solution (1.3 mg/ml p-nitrophenyl-b-D-2-acetamido-2-deoxyglucopyranozide from Sigma in 0.1 M citrate pH 4.5) for 1 hour at 37°C. Reaction was stopped by the addition of 100 μl of 0.2 M glycin (pH 10.7). OD was measured at 405 nm (reference filter at 620 nm). β-hexosaminidase release was calculated using the following formula: (OD sample-ODbuffer) / (ODanti-IgE-ODbuffer) × 100.

[5] = dilution 1:1 of the concentration given (COPs and mixes 10 μM, rBet v 1 1 μM, birch 100’000 SQ), EAACI guidelines
[6] = dilution 1:1 of the concentration given in the row (10 μM)
[7] = dilution 1:100 of the concentration given

Positive skin reactions (≥3 mm wheal and flare present), number of volunteers [1, 5] | 0 mm <Skin reaction < 3 mm (sub-threshold), number of volunteers [1, 6] | 0 mm <Skin reaction < 3 mm (sub-threshold), number of volunteers ([1]; dilution 1:10) | Positive skin reactions (≥3 mm wheal and flare present), number of volunteers ([1]; dilution 1:10) | 0 mm <Skin reaction < 3 mm (sub-threshold), number of volunteers [1, 7] | Positive skin reactions (≥3 mm wheal and flare present), number of volunteers [1, 7] | EC50 [2] [µM] | Positive skin reactions (≥3 mm wheal and flare present), number of volunteers [3] | Molecule | skin prick test positive reactions [1] | positive skin prick reactions, share of patients ([1]; allergen concentration lowered by 10 fold (birch 10’000 SQ, rBet v 1 0.1 μM)) [%] | optimal rBet v 1 concentration for hexosaminidase release (RBL-2H3 cells; RBL-2H3 loaded with sera from rBet v 1-sensitized mice, serial concentrations) [nM] | hexosaminidase release (RBL-2H3 cells; RBL-2H3 primed with sera from Bet v 1-sensitized mice (1:30), stimulation 1 h 37°C, COPs and AllerT at 5.7 nM (n=10) and 57 nM (n=3), OD 405 nm) | dose at which maximal degranulation response was reached [4]
0 | 0 | 0 | 0 | 1 | 0 | > 10 |  | GVFNYETETTSVIPAARLFKAFILDGDNLFPKVAPQAISSVENIEGNGGPGTIKKISFPEGFPFKYVKDRVDEVDHTNFKYNYS [T4, Bet v 1-derived synthetic contiguous overlapping peptide, aa 2-85] |  |  |  |  | 
 |  |  |  |  |  | > 10 | 0 | VATPDGGSILKISNKYHTKGDHEVKAEQVKASKEMGETLLRAVESYLLAHSDAYN [T3] |  |  |  |  | 
0 |  | 0 | 0 | 0 | 0 | > 10 |  | GVFNYETETTSVIPAARLFKAFILDGDNLFPKVAPQAISSVENIEGNGG [T1, Bet v 1-derived synthetic contiguous overlapping peptide, aa 2-50] | unable to elicit skin prick test positive reactions |  |  |  | 
0 | 0 | 0 | 0 | 0 | 0 | > 10 |  | NGGPGTIKKISFPEGFPFKYVKDRVDEVDHTNFKYNYSVIEGGPIGDTLEKISNEIKIVATPDGGSILKIS [T2, Bet v 1-derived synthetic contiguous overlapping peptide, aa 48-118] | unable to elicit skin prick test positive reactions |  |  |  | 

Molecule | Positive skin reactions (≥3 mm wheal and flare present), number of volunteers [1, 5] | 0 mm <Skin reaction < 3 mm (sub-threshold), number of volunteers [1, 6] | 0 mm <Skin reaction < 3 mm (sub-threshold), number of volunteers ([1]; dilution 1:10) | Positive skin reactions (≥3 mm wheal and flare present), number of volunteers ([1]; dilution 1:10) | 0 mm <Skin reaction < 3 mm (sub-threshold), number of volunteers [1, 7] | Positive skin reactions (≥3 mm wheal and flare present), number of volunteers [1, 7] | EC50 [2] [µM] | Positive skin reactions (≥3 mm wheal and flare present), number of volunteers [3] | skin prick test positive reactions [1] | positive skin prick reactions, share of patients ([1]; allergen concentration lowered by 10 fold (birch 10’000 SQ, rBet v 1 0.1 μM)) [%] | optimal rBet v 1 concentration for hexosaminidase release (RBL-2H3 cells; RBL-2H3 loaded with sera from rBet v 1-sensitized mice, serial concentrations) [nM] | hexosaminidase release (RBL-2H3 cells; RBL-2H3 primed with sera from Bet v 1-sensitized mice (1:30), stimulation 1 h 37°C, COPs and AllerT at 5.7 nM (n=10) and 57 nM (n=3), OD 405 nm) | dose at which maximal degranulation response was reached [4]
T5: Bet v 1-derived synthetic contiguous overlapping peptide, aa 65-160 (peptide, UniProt P15494 65-160, looked up, fragment) FKYVKDRVDEVDHTNFKYNYSVIEGGPIGDTLEKISNEIKIVATPDGGSILKISNKYHTKGDHEVKAEQVKASKEMGETLLRAVESYLLAHSDAYN | 0 |  | 0 | 0 | 0 | 0 | > 10 |  |  |  |  |  | 
rBet v 1: recombinant major birch pollen allergen Bet v 1 (BIOMAY, Vienna, Austria) (protein, UniProt P15494 2-160, looked up) Major pollen allergen Bet v …: GVFNYETETTSVIPAARLFKAFILDGDNLFPKVAPQAISSVENIEGNGGPGTIKKISFPEGFPFKYVKDRVDEVDHTNFKYNYSVIEGGPIGDTLEKISNEIKIVATPDGGSILKISNKYHTKGDHEVKAEQVKASKEMGETLLRAVESYLLAHSDAYN |  |  |  | 16 |  | 2 |  |  |  | 80 | 0.57 | accumulated significantly | 10^-9 M
